The values that follow come from patent US5614533A, “Substituted pipecolinic acid derivatives as HIV protease inhibitors” (Bio-Mega/Boehringer Ingelheim Research, Inc., priority 1994, dated 1997).

For test [1], the system named is HIV (H9/HTLV-IIIB) in C8166 cells. Nature of the test: plaque assay: inhibition of syncytia formation in HIV-infected C8166 cells. Type of test: cell-based. Particulars: Human immunodeficiency virus 1, IIIB, 72 h, 50% inhibition of syncytia formation. From the text: Typical of such procedures are those described by S. Harada and N. Yamamoto, Jpn. J. Cancer Res. (Gann), 76, 432 (1985), and S. Harada et al., Science, 229, 563 (1985). An assay based on the latter procedures is described in the examples hereinafter.
The following protocol, used for screening antiviral effects of the compounds of formula 1, is adapted from a plaque assay utilizing HTLV-I transformed cells, previously reported by Harada et al., supra. HTLV-I transformed cells are used because of the rapidity with which HIV will replicate in the cells.
1. The test compound is dissolved in dimethylsulfoxide to a concentration of 5 mg/mL. The resultant solution can be stored at 4° until use.
2. The resultant solution is diluted in RPMI 1640 (Gibco Laboratories, St. Lawrence, Mass., USA) to four times (4×) the final concentration which is to be tested. Once diluted in RPMI 1640, the solution is used in the cell culture assay within 4 h.
3. The 4× solution (50 μL) is added to triplicate wells of a 96 well flat bottomed microtiter plate. RPMI (50 μL) also is added to control wells.
4. C8166 cells (5×10^4) in 50 μL of HEPES-buffered RPMI 1640 (pH=7.2), 10% heat inactivated fetal calf serum (FCS), […] gentamicin (complete media) are added to all wells.
5. Fifty times TCID50 of H9/HTLV-IIIB stock (stored in liquid nitrogen as cell culture supernatant in 50% FCS) in 100 μL of complete media is added to all wells. Infectious titer of virus stocks are as previously determined by end point dilution on C8166 cells. Titer of stocks are stable for 6-12 months when stored at -193°.
6. Microtiter plates are then placed on level shelves of a 37°, 5% CO2 humidified incubator for 72 h.
7. Plates are then removed and centers of syncytia are counted in each well by low power phase contrast light microscopy. […] Control wells should have between 25 and 75 centers of syncytia per well.
8. Percent inhibition of syncytia formation is calculated by the formula: [formula]
The concentration of the test compound which causes a 50% inhibition of syncytia formation, i.e. the EC50, is determined by using the technique of serial dilution of the working solution at step 3 and by using non-linear regression analysis (SAS® program) to graphically plot the observed percent inhibition of syncytia formation against the various concentrations of the test compound.

For a further test, the target named is T1, HIV protease (Human immunodeficiency virus type 1 group M subtype B, UniProt P04585).
T1 construct: HIV protease was expressed in E. coli; made in house; host or cells: E. coli (plasmid pBRT1 prt+)
Nature of the test: Recombinant HIV Protease HPLC Assay. Type of test: biochemical. Particulars: 37°, 30 min, pH 5.5. An excerpt: The procedure is based on the capacity of the test compound to inhibit enzymatic cleavage by HIV protease of a decapeptide (the substrate) having an amino acid sequence which includes a known HIV protease cleavage site of a HIV polyprotein; see H. G. Krausslich et al., Proc. Natl. Acad. Sci. USA, 86, 807 (1989). Details of this assay together with the results obtained for exemplified compounds of formula 1 are described in the examples hereinafter.
Recombinant HIV Protease HPLC Assay:
Enzyme: HIV protease was expressed in E. coli {construct pBRT1 prt^+, see W. G. Farmerie et al., Science, 236, 305 (1987)}, according to the following protocol:
E. coli cells containing the pBRT1 prt^+ plasmid were used to inoculate a seed culture media composed of Luria-Bertani Broth containing 100 μg/mL of ampicillin. Flasks were incubated at 37° under agitation for 17 h. Production flasks containing sterile M9 broth, supplemented with 100 μg/mL of ampicillin, were inoculated at a level of 1% (v/v) using the seed culture described above. Total volume in each production flask was 500 mL in a 2 L Erlenmeyer flask. Flasks were incubated at 37° under agitation until a cell concentration corresponding to an optical density ([…]) of 0.6 was reached (no dilution). This time span was routinely 3-4 h. Flasks were then supplemented with 5 mM isopropylthiogalactoside (IPTG, Research Organics, Cleveland, Ohio, USA) and incubation was continued until the cell concentration reached an optical density of 0.2 at 16-fold dilution. Flasks were then supplemented with 1 mM phenylmethylsulfonyl fluoride (PMSF) and rapidly chilled to 4°. The bacterial cells were recovered by centrifugation at 4°. The wet pellet was stored at -70°.
All steps below were performed at 4° unless otherwise indicated. Thawed cells were mixed with buffer A {50 mM tris(hydroxymethyl)[…] HCl (Tris-HCl, pH 7.4); 0.6 mM ethylenediaminetetraacetic acid (EDTA); 0.375M NaCl, 0.2% Nonidet P-40® (BDH Chemicals Ltd., Poole, UK); 1 mM PMSF}, at a ratio of one part cells to nine parts buffer A. Diatomaceous earth (Celite 545®, John Manville, Lompoc, Calif. USA) was added at a ratio of two parts to one part of wet cell weight. The resulting slurry was homogenized at high speed (ca. 20,000 rpm) on a Waring® industrial blender for 8×15 sec. pulses. Cell debris/Celite® was collected by centrifugation and the resulting pellet was extracted with 4.5 parts of buffer A to one part wet solids using the homogenization procedure described above. Supernatants from both homogenization steps were combined and soluble protein was precipitated by the addition of solid (NH4)2 SO4 to yield a final concentration of 75% saturation. This mixture was agitated for 60 min and the precipitate was recovered by centrifugation. The resulting pellet was suspended in buffer B {50 mM Tris-HCl, pH 8; 30 mM NaCl; 1 mM DL-dithiothreitol (DTT); 1 mM EDTA; 1 mM PMSF; 10% glycerol}, and dialyzed for 18 h against the same buffer.
An aliquot of the dialyzed extract containing 150 mg of the protein was loaded onto a Sephadex A25® anion exchange column (Pharmacia, Uppsala, Sweden) with bed dimensions of 70 cm length and 2.5 cm diameter. The sample was eluted isocratically with buffer B at a linear flow rate of 10 cm/h. Fractions containing HIV protease activity (see below for assay description) were combined, and soluble protein was precipitated by the addition of saturated aqueous (NH4)2 SO4 to yield a total (NH4)2 SO4 concentration of 85% saturation. Precipitated protein was removed by centrifugation and the resulting pellet was dissolved in buffer C {50 mM 2-(4-morpholino)ethanesulfonic acid (MES), pH 5.5; 150 mM NaCl; 1 mM DTT; 1 mM EDTA; 10% glycerol}. This preparation was dialyzed for 18 h against buffer C, and then frozen at -70°. All crude extracts were purified by chromatography in aliquots containing 150 mg of protein in the same manner as described above. […]

As a reminder, the EC50 is the concentration giving half of the maximal effect. A high value points to lower potency in that assay. As a reminder, the IC50 is the point on the concentration scale where inhibition reaches its midpoint. `CC(C)[C@H](NC(=O)OCc1ccccc1)C(=O)N[C@@H](Cc1ccc(F)cc1)[C@H](O)CN1CC[C@@H](Sc2ccccc2)C[C@H]1C(=O)NC(C)(C)C` [Table IV, entry 26, N-tert-butyl-1-{3(S)-{{N-(benzyloxycarbonyl)valyl}amino}-2(R)-hydroxy-4-(4-fluorophenyl)butyl}-4(R)-(phenylthio)piperidine-2(S)-carboxamide] came in with an EC50 in test [1] (Table IV) of 24 nM. The IC50 at HIV protease (Table IV) amounted to 3.5 nM.

As to `CC(C)[C@H](NC(=O)c1ccc2ccccc2n1)C(=O)N[C@@H](Cc1ccccc1)[C@H](O)CN1CC[C@@H](Oc2ccc(F)cc2)C[C@H]1C(=O)NC(C)(C)C` [Table V, entry 15, N-tert-butyl-1-{2(S)(R)-hydroxy-4-phenyl-3(S)-{{N-(2-quinolylinylcarbonyl)valyl}amino}butyl}-4(R)-{(4-fluorophenyl)oxy}piperidine-2-carboxamide], the midpoint of the response in test [1] (Table V), the EC50, lay at 22 nM. Further, the half-maximal inhibitory concentration (IC50) on HIV protease (Table V) came out at 2.6 nM.

With `CC(C)(C)NC(=O)[C@@H]1C[C@H](Sc2ccccc2)CCN1C[C@@H](O)[C@H](Cc1ccccc1)NC(=O)OCc1ccccc1` [Table IV, entry 5, N-tert-butyl-1-{3(S)-(benzyloxycarbonylamino)-2(R)-hydroxy-4-phenylbutyl}-4(R)-(phenylthio)piperidine-2(S)-carboxamide], in test [1] (Table IV), the concentration giving a half-maximal response (EC50) was 800 nM.

On to `CNC(=O)C[C@H](NC(=O)c1ccc2ccccc2n1)C(=O)N[C@@H](Cc1ccccc1)[C@H](O)CN1CC[C@@H](Oc2ccccc2)C[C@H]1C(=O)NC(C)(C)C` [Table VI, entry 4, N-tert-butyl-1-{2(R)-hydroxy-4-phenyl-3(S)-{{N-(2-quinolylinylcarbonyl)(N^4-methyl)asparaginyl}amino}butyl}-4(R)-phenoxypiperidine-2(S)-carboxamide], for which, in test [1] (Table VI), a half-maximal effect (EC50) was put at 13 nM. In addition, the IC50 at HIV protease (Table VI) was 3.7 nM.

As for `CC(C)(C)NC(=O)[C@@H]1C[C@H](Sc2ccccc2)CCN1C[C@@H](O)[C@H](Cc1ccc(F)cc1)NC(=O)OCc1ccccc1` [Table IV, entry 1, N-tert-butyl-1-{3(S)-(benzyloxycarbonylamino)-2(R)-hydroxy-4-(4-fluorophenyl)butyl}-4(R)-(phenylthio)piperidine-2(S)-carboxamide], the half-maximal inhibitory concentration (IC50) on HIV protease (Table IV) was found to be 9.5 nM.

Turning to `CC(C)(C)NC(=O)[C@@H]1C[C@H](C2CCCCC2)CCN1C[C@@H](O)[C@H](Cc1ccccc1)NC(=O)OCc1ccccc1` [Table IV, entry 7, N-tert-butyl-1-{3(S)-(benzyloxycarbonylamino)-2(R)-hydroxy-4-phenylbutyl}-4(R)-cylohexylpiperidine-2(S)-carboxamide], at HIV protease (Table IV), the 50% inhibitory concentration (IC50) worked out at 2100 nM.

As for `CC(C)[C@H](NC(=O)OCc1ccccc1)C(=O)N[C@@H](Cc1ccccc1)[C@H](O)CN1CC[C@@H](Sc2ccncc2)C[C@H]1C(=O)NC(C)(C)C` [Table IV, entry 34, N-tert-butyl-1-{3(S)-{{N-(benzyloxycarbonyl)valyl}amino}-2(R)-hydroxy-4-phenylbutyl}-4(R)-(4-pyridinylthio)piperidine-2(S)-carboxamide], the concentration for half-maximal inhibition (IC50) at HIV protease (Table IV) turned out to be 2.5 nM.

With `CC(C)(C)NC(=O)[C@@H]1C[C@H](c2ccccc2)CCN1C[C@@H](O)[C@H](Cc1ccccc1)NC(=O)OCc1ccccc1` [Table IV, entry 2, N-tert-butyl-1-{3(S)-(benzyloxycarbonylamino)-2(R)-hydroxy-4-phenylbutyl}-4(R)-phenylpiperidine-2(S)-carboxamide], the half-maximal inhibitory concentration (IC50) on HIV protease (Table IV) is 400 nM.

As to `CC(C)(C)NC(=O)[C@@H]1C[C@H](Sc2ccncc2)CCN1C[C@@H](O)[C@H](Cc1ccccc1)NC(=O)COc1ccccc1` [Table VII, entry 3, N-tert-butyl-1-{3(S)-{{phenoxyacetyl}amino}-2(R)-hydroxy-4-phenylbutyl}-4(R)-(4-pyridinylthio)piperidine-2(S)-carboxamide], the IC50 at HIV protease (Table VII) was 34 nM.

In the case of `CC(C)(C)NC(=O)[C@@H]1C[C@H](Oc2ccccc2)CCN1C[C@@H](O)[C@H](Cc1ccccc1)NC(=O)OCc1ccccc1` [Table IV, entry 6, N-tert-butyl-1-{3(S)-(benzyloxycarbonylamino)-2(R)-hydroxy-4-phenylbutyl}-4(R)-phenoxypiperidine-2(S)-carboxamide], the IC50 at HIV protease (Table IV) worked out at 53 nM.

Take `Cc1ccc(F)cc1C(=O)N[C@@H](Cc1ccccc1)[C@H](O)CN1CC[C@@H](Sc2ccncc2)C[C@H]1C(=O)NC(C)(C)C` [Table VII, entry 9, N-tert-butyl-1-{3(S)-{{(5-fluoro-2-methylphenyl)carbonyl}amino}-2(R)-hydroxy-4-phenylbutyl}-4(R)-(4-pyridinylthio)piperidine-2(S)-carboxamide]: the IC50 on HIV protease (Table VII) is 6.8 nM.

With `CC(C)[C@H](NC(=O)OCc1ccccc1)C(=O)N[C@@H](Cc1ccccc1)[C@H](O)CN1CC[C@@H](Sc2ccccn2)C[C@H]1C(=O)NC(C)(C)C` [Table IV, entry 33, N-tert-butyl-1-{3(S)-{{N-(benzyloxycarbonyl)valyl}amino}-2(R)-hydroxy-4-phenylbutyl}-4(R)-(2-pyridinylthio)piperidine-2(S)-carboxamide], the concentration for half-maximal inhibition (IC50) on HIV protease (Table IV) worked out at 3.2 nM.

For the compound `CC(C)(C)NC(=O)[C@@H]1C[C@H](Cc2ccccc2)CCN1C[C@@H](O)[C@H](Cc1ccccc1)NC(=O)OCc1ccccc1` [Table IV, entry 3, N-tert-butyl-1-{3(S)-(benzyloxycarbonylamino)-2(R)-hydroxy-4-phenylbutyl}-4(R)-benzylpiperidine-2(S)-carboxamide], the IC50 on HIV protease (Table IV) stood at 460 nM.
